Tests used:
[1] = system: human invasive heterozygous BRAF^WT/V600E PTC-derived cell line; assay: Invasion of human invasive BRAF^WT/V600E PTC-derived cell line; format: cell-based
[2] = system: BRAF^V600E PTC-derived cells; assay: 123-Iodide uptake in vitro; conditions: Xloc13 lincRNA; synergizes with vemurafenib
[3] = system: TPO and TTF-1 mRNA in BRAF^V600E PTC-derived cells; assay: qPCR of iodide metabolism genes (TPO, TTF-1 mRNA) in PTC-derived cells
[4] = system: BRAF^WT/V600E PTC-derived cell line xenograft tumors; assay: Xenograft mouse model of human invasive heterozygous BRAF^WT/V600E PTC-derived cell line
[5] = system: Xloc13 lincRNA expression in BRAF^V600E PTC-derived cells; assay: qPCR of Xloc13 expression in BRAF^V600E PTC-derived cells; format: cell-based, human; conditions: metastatic or non-metastatic PTC-derived cells; vs. vehicle
[6] = Xloc13+ BRAF^WT/V600E PTC-derived cells

Row | Compound | invasion ([1]; Xloc13 lincRNA overexpression alone) | invasion ([1]; Xloc13 lincRNA overexpression plus vemurafenib) | 123-iodide uptake/organification in vitro [2] | TPO mRNA expression levels ([3]; Xloc13 lincRNA over-expression in PTC-derived cell lines) | EZH2 protein levels [4, 6] | H3K27me3 (EZH2 effector) [4, 6] | decrease in growth ([4]; Xloc13+ cells under vemurafenib therapy vs. backbone vector control) [fold] | 123-Iodide uptake in xenograft tumors (nano-SPECT imaging) ([4]; Xloc13+ tumors of vemurafenib-treated mice vs. vehicle-treated backbone vector controls) | rescue of Xloc13 expression (qPCR) [5] | TPO and TTF-1 mRNA levels rise ([3]; cells engineered to over-express Xloc13 (Xloc13+) during treatment with vemurafenib) [fold-changes]
1 | Xloc13 lincRNA: thyroid-specific long intergenic non-coding RNA (2.257 kb, SEQ ID NO: 1), over-expressed from a vector in PTC-derived cells | inhibited invasion | inhibits invasion | crucial for the rescue | up-regulates TPO mRNA expression levels | transcriptionally down-regulated EZH2 protein levels | reducing its effector H3K27me3 | > 3 | significantly crucial for the recovery |  | 
2 | CCCS(=O)(=O)Nc1ccc(F)c(C(=O)c2c[nH]c3ncc(-c4ccc(Cl)cc4)cc23)c1F [vemurafenib, reference compound] |  |  |  |  |  |  |  |  | 4-6 fold-changes | ~3.5
